Laboratory results from publication PMC10167921 (Biochemical pharmacology, 2021).
In brackets after ≈: the same amount, converted by molar mass. Several values for one entry are separate records, joined by “and”; a condition that tells them apart may be missing. Equal entries are not always repeated. Where a SMILES comes first, the peptide text is derived from it. Bridges are numbered along the chain shown (N, C = ends). Where no end group is shown, it is not given here. [ ]: non-standard residue; d: D form. The star is where a group is joined. X1 = CC[C@H](C)CCCCC(=O)*; Dab = NCC[C@H](N)C(=O)O

Legend:
E.coli ATCC 259922 = assay: Antimicrobial assay; assay type: cell-based, Escherichia coli; settings: CaMHB, 5 × 10^5 CFU mL^−1, 37 °C, 20 h, visual, duplicate
S. aureus ATCC 43300 = assay: microbe, parasite or virus in culture; assay type: cell-based, Staphylococcus aureus; settings: for Minimum inhibitory concentration: S. aureus ATCC 43300, CaMHB, 5 × 10^5 CFU mL^−1, 37 °C, 20 h, visual, duplicate
B. subtilis ATCC 6051 = assay: microbe, parasite or virus in culture; assay type: cell-based, Bacillus subtilis; settings: for Minimum inhibitory concentration: B. subtilis ATCC 6051, CaMHB, 5 × 10^5 CFU mL^−1, 37 °C, 20 h, visual, duplicate
human red blood cells = assay: Hemolysis assay; assay type: cell-based
HEK293 cells = assay: Cytotoxicity assay; assay type: cell-based; settings: HEK293, 24 h at 37 °C, resazurin fluorescence; two independent experiments of duplicate assays (n = 2)
[1] = test system: Gram negative and Gram-positive bacterial pathogens; assay: Antimicrobial assay, summary over the bacterial panel; assay type: cell-based; settings: range over both strains

Compound: CC[C@H](C)CCCCC(=O)N[C@@H](CCN)C(=O)N[C@H](C(=O)N[C@@H](CCN)C(=O)N[C@H]1CCNC(=O)[C@H]([C@@H](C)O)NC(=O)[C@H](CCN)NC(=O)[C@H](CCN)NC(=O)[C@H](CC(C)C)NC(=O)[C@@H](CC(C)C)NC(=O)[C@H](CCN)NC1=O)[C@@H](C)O [Colistin, colistin, reference compound] (X1-[Dab]T[Dab][Dab][Dab][dL]L[Dab][Dab]T; lactam 4-C (inferred); N-terminus assumed)
- Minimum inhibitory concentration (E.coli ATCC 259922): 0.02 to 0.11 µM

Compound: CN[C@H](CC(C)C)C(=O)N[C@H]1C(=O)N[C@@H](CC(N)=O)C(=O)N[C@H]2C(=O)N[C@H]3C(=O)N[C@H](C(=O)N[C@H](C(=O)O)c4cc(O)cc(O)c4-c4cc3ccc4O)[C@H](O)c3ccc(c(Cl)c3)Oc3cc2cc(c3O[C@@H]2O[C@H](CO)[C@@H](O)[C@H](O)[C@H]2O[C@H]2C[C@](C)(N)[C@H](O)[C@H](C)O2)Oc2ccc(cc2Cl)[C@H]1O [Vancomycin, vancomycin, reference compound]
- MIC (S. aureus ATCC 43300; Staphylococcus aureus, ATCC43300, 20 h, read-out: Minimum inhibitory concentration): 0.69 to 1.38 µM (≈ 1 to 2 µg/mL)
- MIC (B. subtilis ATCC 6051; Bacillus subtilis, ATCC6051, 20 h, read-out: Minimum inhibitory concentration): 0.17 to 0.35 µM (≈ 0.246 to 0.507 µg/mL)

Compound: AGTKEWLNKAKDFIKEKGLGMLSAAANAALN [Nc3b]
- Minimum inhibitory concentration (E.coli ATCC 259922): >40 µM
- Minimum inhibitory concentration (S. aureus ATCC 43300): >40 µM
- Minimum inhibitory concentration (B. subtilis ATCC 6051): >40 µM
- Hemolysis at fixed concentration (human red blood cells; 100 μM peptide): no hemolysis
- Hemolysis at fixed concentration (human red blood cells; 300 μM peptide): no hemolysis

Compound: FLGALLKIGAKLLPSVVGLFKKKQQ [Na1b]
- Minimum inhibitory concentration (E.coli ATCC 259922): 5.9 to 11.8 µM
- Minimum inhibitory concentration (S. aureus ATCC 43300): 0.3 to 5.9 µM
- Minimum inhibitory concentration (B. subtilis ATCC 6051): 0.18 to 2.9 µM
- Cytotoxicity (CC50), 50% death of HEK293 cells (HEK293 cells): 4.5 to 5.9 µM

Compound: FVKELWDKVKKMGSAAWSAAKGAFA [Nc2a]
- Minimum inhibitory concentration (E.coli ATCC 259922): 11.7 to 46.9 µM
- Minimum inhibitory concentration (S. aureus ATCC 43300): >40 µM
- Minimum inhibitory concentration (B. subtilis ATCC 6051): 5.9 to 11.8 µM
- Cytotoxicity (CC50), 50% death of HEK293 cells (HEK293 cells): > 40 µM and 48.2 to 56.9 µM
- Hemolysis at fixed concentration (human red blood cells; 100 μM peptide): no hemolysis

Compound: FWGAAAKMLGKALPGLISMFQKN [Nc1a]
- Minimum inhibitory concentration (E.coli ATCC 259922): 25.8 to 51.6 µM
- Minimum inhibitory concentration (S. aureus ATCC 43300): 2.9 to 5.9 µM
- Minimum inhibitory concentration (B. subtilis ATCC 6051): 1.48 to 5.9 µM
- MIC against Gram-positive bacteria (Staphylococcus aureus and B. subtilis) [1]: 1.48 to 5.9 µM
- Cytotoxicity (CC50), 50% death of HEK293 cells (HEK293 cells): 12.6 to 13.5 µM

Compound: GWKDWLNKAKDFIKEKGPEILRAAANAAIN [Nc3a]
- Minimum inhibitory concentration (E.coli ATCC 259922): 2.3 to 4.7 µM
- Minimum inhibitory concentration (S. aureus ATCC 43300): 23.7 to 47.4 µM
- Minimum inhibitory concentration (B. subtilis ATCC 6051): 1.48 to 2.9 µM
- Hemolysis at fixed concentration (human red blood cells; 100 μM peptide): no hemolysis
